From patent US12599672B2, “KRAS proteolysis targeting chimeras” (PAQ Therapeutics Inc., priority 2023, dated 2026)

What was measured:
Type in all cases: cell-based
[1] = molecular target: T1, KRAS G12V (Homo sapiens, UniProt P01116, G12V); assay: KRAS G12V HiBit assay; conditions: SW620-KRAS (G12V)-HiBit-KI cells, compound treatment for 24 hours
T1 construct: SW620-KRAS (G12V)-HiBit-KI cell (Pharmaron); host or cells: SW620-KRAS (G12V)-HiBit-KI cells (HiBiT knock-in at the endogenous KRAS locus)
Method in brief: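 HiBiT-tagged KRAS G12V cells treated 24 h with compound in a 3-fold, 10-point series (0.3 mM DMSO stock); lytic HiBiT reagent with LgBiT added after 15 min room-temperature equilibration. Degradation calculated against 0.1% DMSO high control.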

[2] = molecular target: T2, KRAS (Homo sapiens, UniProt P01116); assay: KRASamp MSD assay; conditions: KE39 (KRAS amplified) cells, treated with test compounds for 24 hr, MSD readout of KRAS degradation
T2 construct: endogenous in cells; host or cells: KE39 (KRAS amplified) cells
Method in brief: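 KRAS-amplified KE39 cells treated with compound for 24 hr, then lysed in RIPA buffer with protease/phosphatase inhibitors. KRAS protein measured by MSD sandwich immunoassay against a recombinant WT KRAS standard curve; DC50 derived from curve fitting of degradation.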

[3] = molecular target: T3, KRAS G12D (Homo sapiens, UniProt P01116, G12D); assay: KRAS G12D HiBit assay; conditions: AsPc-1-KRAS (G12D)-HiBit-KI cell, compound treatment for 24 hours, absolute DC50
T3 construct: AsPc-1-KRAS (G12D)-HiBit-KI cell (Pharmaron); host or cells: AsPc-1-KRAS (G12D)-HiBit-KI cells (HiBiT knock-in at the endogenous KRAS locus)
Method in brief: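 Cells were treated for 24 h with compounds in a 3-fold, 10-point dilution series from a 0.3 mM DMSO stock, then equilibrated 15 min at room temperature. KRAS G12D HiBiT levels were read by luminescence after lytic Nano-Glo HiBiT reagent with LgBiT; inhibition calculated relative to 0.1% DMSO high control.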

[4] = numeric bounds given in place of class symbols

T3 sequence (P01116 1-188 isoform P01116-2 G12D): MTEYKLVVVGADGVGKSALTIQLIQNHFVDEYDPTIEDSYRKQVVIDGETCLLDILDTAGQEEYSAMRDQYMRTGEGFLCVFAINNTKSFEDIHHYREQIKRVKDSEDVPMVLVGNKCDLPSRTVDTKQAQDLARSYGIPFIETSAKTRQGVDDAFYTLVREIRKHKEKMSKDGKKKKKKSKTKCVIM
T1 sequence (P01116 1-188 isoform P01116-2 G12V): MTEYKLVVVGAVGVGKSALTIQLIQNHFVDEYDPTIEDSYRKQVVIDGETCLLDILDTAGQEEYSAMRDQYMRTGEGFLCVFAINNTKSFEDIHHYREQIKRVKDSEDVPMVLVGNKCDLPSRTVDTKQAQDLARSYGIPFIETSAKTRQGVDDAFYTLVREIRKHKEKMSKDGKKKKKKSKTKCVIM
T2 sequence (P01116 1-188 isoform P01116-2): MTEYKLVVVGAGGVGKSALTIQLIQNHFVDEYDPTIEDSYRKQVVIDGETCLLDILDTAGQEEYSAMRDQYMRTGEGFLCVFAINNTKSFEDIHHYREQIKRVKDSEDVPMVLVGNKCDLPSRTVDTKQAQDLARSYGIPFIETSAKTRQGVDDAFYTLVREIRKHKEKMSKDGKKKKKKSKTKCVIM

| DC50 ([1]; class symbols) | DC50 [2] | DC50 ([3]; class symbols) | DC50 ([1]; numeric bounds) | DC50 [3, 4] | SMILES |
| --- | --- | --- | --- | --- | --- |
| < 10 nM | < 1 nM | < 100 nM |  |  | C#Cc1c(F)ccc2cc(O)cc(-c3ncc4c(N5CCC[C@@](C)(O)C5)nc(OC[C@]56CCCN5[C@H](COC(=O)N5CCC(CN7CCC(c8ccc9c(c8)n(C)c(=O)n9C8CCC(=O)NC8=O)CC7)CC5)CC6)nc4c3F)c12 (stereo partly drawn) [Compound 134] |
|  | 1 to 10 nM | 100 to 300 nM | > 75.7 nM |  | C#Cc1c(F)ccc2cccc(-c3ncc4c(N5CCC[C@@](C)(O)C5)nc(OC[C@@]56CCCN5[C@H](COC(=O)N5CCC(CN7CCC(c8cccc9c8n(C)c(=O)n9C8CCC(=O)NC8=O)CC7)CC5)CC6)nc4c3F)c12 (stereo partly drawn) [Compound 137] |
|  | < 1 nM |  | > 79.2 nM | > 100 nM | C#Cc1c(F)ccc2cccc(-c3ncc4c(N5CCC[C@@](C)(O)C5)nc(OC[C@]56CCCN5[C@H](COC(=O)N5CCC(CN7CCC(c8ccc9c(c8)n(C)c(=O)n9C8CCC(=O)NC8=O)CC7)CC5)CC6)nc4c3F)c12 (stereo partly drawn) [Compound 141] |
| < 10 nM | 1 to 10 nM | < 100 nM |  |  | CCc1cccc2cc(O)cc(-c3ncc4c(N5CCC[C@@](C)(O)C5)nc(OC[C@@]56CCCN5[C@H](COC(=O)N5CCC(CN7CCC(c8ccc9c(c8)n(C)c(=O)n9C8CCC(=O)NC8=O)CC7)CC5)CC6)nc4c3F)c12 (stereo partly drawn) [Compound 145] |
| < 10 nM | < 1 nM | < 100 nM |  |  | C#Cc1c(F)ccc2cc(O)cc(-c3ncc4c(N5CCC[C@@](C)(O)C5)nc(OC[C@@]56CCCN5[C@H](COC(=O)N5CCC(OC7CCN(c8ccc9c(c8)n(C)c(=O)n9C8CCC(=O)NC8=O)CC7)CC5)CC6)nc4c3F)c12 (stereo partly drawn) [Compound 155, ((3S,7aS)-7a-(((7-(8-Ethynyl-7-fluoro-3-hydroxynaphthalen-1-yl)-8-fluoro-4-((R)-3-hydroxy-3-methylpiperidin-1-yl)pyrido[4,3-d]pyrimidin-2-yl)oxy)methyl)hexahydro-1H-pyrrolizin-3-yl)methyl 4-((1-(1-(2,6-dioxopiperidin-3-yl)-3-methyl-2-oxo-2,3-dihydro-1H-benzo[d]imidazol-5-yl)piperidin-4-yl)oxy)piperidine-1-carboxylate] |
| < 10 nM | < 1 nM | < 100 nM |  |  | CCc1c(F)ccc2cc(O)cc(-c3ncc4c(N5CCC[C@@](C)(O)C5)nc(OC[C@@]56CCCN5[C@H](COC(=O)N5CCC(F)(CN7CCC(c8ccc9c(c8)n(C)c(=O)n9C8CCC(=O)NC8=O)CC7)CC5)CC6)nc4c3F)c12 (stereo partly drawn) [Compound 156, ((3S,7AS)-7a-(((7-(8-ethyl-7-fluoro-3-hydroxynaphthalen-1-yl)-8-fluoro-4-((R)-3-hydroxy-3-methylpiperidin-1-yl)pyrido[4,3-d]pyrimidin-2-yl)oxy)methyl)hexahydro-1H-pyrrolizin-3-yl)methyl 4-((4-(1-(2,6-dioxopiperidin-3-yl)-3-methyl-2-oxo-2,3-dihydro-1H-benzo[d]imidazol-5-yl)piperidin-1-yl)methyl)-4-fluoropiperidine-1-carboxylate] |
| < 10 nM | < 1 nM | < 100 nM |  |  | CCc1c(F)ccc2cc(O)cc(-c3ncc4c(N5CCC[C@@](C)(O)C5)nc(OC[C@@]56CCCN5[C@H](COC(=O)N5CCC7(CC5)CC(N5CCC(c8ccc9c(c8)n(C)c(=O)n9C8CCC(=O)NC8=O)CC5)C7)CC6)nc4c3F)c12 (stereo partly drawn) [Compound 159, ((3S,7aS)-7a-(((7-(8-Ethyl-7-fluoro-3-hydroxynaphthalen-1-yl)-8-fluoro-4-((R)-3-hydroxy-3-methylpiperidin-1-yl)pyrido[4,3-d]pyrimidin-2-yl)oxy)methyl)hexahydro-1H-pyrrolizin-3-yl)methyl2-(4-(1-(2,6-dioxopiperidin-3-yl)-3-methyl-2-oxo-2,3-dihydro-1H-benzo[d]imidazol-5-yl)piperidin-1-yl)-7-azaspiro[3.5]nonane-7-carboxylate] |
| < 10 nM | < 1 nM | < 100 nM |  |  | CCc1c(F)ccc2cc(O)cc(-c3ncc4c(N5CCC[C@@](C)(O)C5)nc(OC[C@@]56CCCN5[C@H](COC(=O)N5CCC(OC7CCN(c8ccc9c(c8)n(C)c(=O)n9C8CCC(=O)NC8=O)CC7)CC5)CC6)nc4c3F)c12 (stereo partly drawn) [Compound 160, ((3S,7aS)-7a-(((7-(8-Ethyl-7-fluoro-3-hydroxynaphthalen-1-yl)-8-fluoro-4-((R)-3-hydroxyl-3-methylpiperidin-1-yl)pyrido[4,3-d]pyrimidin-2-yl)oxy)methyl)hexahydro-1H-pyrrolizin-3-yl)methyl 4-((1-(1-(2,6-dioxopiperidin-3-yl)-3-methyl-2-oxo-2,3-dihydro-1H-benzo[d]imidazol-5-yl)piperidin-4-yl)oxy)piperidine-1-carboxylate] |

Second part, the molecule before the results:

| SMILES | DC50 ([1]; class symbols) | DC50 [2] | DC50 ([3]; class symbols) | DC50 ([1]; numeric bounds) | DC50 [3, 4] |
| --- | --- | --- | --- | --- | --- |
| C#Cc1c(F)ccc2cc(O)cc(-c3ncc4c(N5CCC[C@@](C)(O)C5)nc(OC[C@@]56CCCN5[C@H](COC(=O)N5CCC(COC7CN(c8ccc9c(c8)n(C)c(=O)n9C8CCC(=O)NC8=O)C7)CC5)CC6)nc4c3F)c12 (stereo partly drawn) [Compound 132] | < 10 nM | 1 to 10 nM | < 100 nM |  |  |
| C#Cc1c(F)ccc2cc(O)cc(-c3ncc4c(N5CCC[C@@](C)(O)C5)nc(OC[C@@]56CCCN5[C@@H](COC(=O)N5CCC(CN7CCC(c8ccc9c(c8)n(C)c(=O)n9C8CCC(=O)NC8=O)CC7)CC5)CC6)nc4c3F)c12 (stereo partly drawn) [Compound 140] |  | < 1 nM | < 100 nM | > 38.9 nM |  |
| CCc1c(F)ccc2cc(O)cc(-c3ncc4c(N5CCC[C@@](C)(O)C5)nc(OC[C@@]56CCCN5[C@H](COC(=O)c5ccc(CN7CCC(c8ccc9c(c8)n(C)c(=O)n9C8CCC(=O)NC8=O)CC7)cc5)CC6)nc4c3F)c12 (stereo partly drawn) [Compound 154] | < 10 nM | < 1 nM | < 100 nM |  |  |
| CCc1c(F)ccc2cc(O)cc(-c3ncc4c(N5CCC[C@@](C)(O)C5)nc(OC[C@@]56CCCN5[C@H](COC(=O)N5CCC(C)(CN7CCC(c8ccc9c(c8)n(C)c(=O)n9C8CCC(=O)NC8=O)CC7)CC5)CC6)nc4c3F)c12 (stereo partly drawn) [Compound 157, ((3S,7aS)-7a-(((7-(8-Ethyl-7-fluoro-3-hydroxynaphthalen-1-yl)-8-fluoro-4-((R)-3-hydroxy-3-methylpiperidin-1-yl)pyrido[4,3-d]pyrimidin-2-yl)oxy)methyl)hexahydro-1H-pyrrolizin-3-yl)methyl 4-((4-(1-(2,6-dioxopiperidin-3-yl)-3-methyl-2-oxo-2,3-dihydro-1H-benzo[d]imidazol-5-yl)piperidin-1-yl)methyl)-4-methylpiperidine-1-carboxylate] | < 10 nM | < 1 nM |  |  | > 100 nM |
| C#Cc1c(F)ccc2cc(O)cc(-c3ncc4c(N5CCC[C@@](C)(O)C5)nc(OC[C@@]56CCCN5[C@H](COC(=O)N5CCC7(CC5)CC(N5CCC(c8ccc9c(c8)n(C)c(=O)n9C8CCC(=O)NC8=O)CC5)C7)CC6)nc4c3F)c12 (stereo partly drawn) [Compound 158, ((3S,7aS)-7a-(((7-(8-Ethynyl-7-fluoro-3-hydroxynaphthalen-1-yl)-8-fluoro-4-((R)-3-hydroxy-3-methylpiperidin-1-yl)pyrido[4,3-d]pyrimidin-2-yl)oxy)methyl)hexahydro-1H-pyrrolizin-3-yl)methyl-2-(4-(1-(2,6-dioxopiperidin-3-yl)-3-methyl-2-oxo-2,3-dihydro-1H-benzo[d]imidazol-5-yl)piperidin-1-yl)-7-azaspiro[3.5]nonane-7-carboxylate] | < 10 nM | < 1 nM | < 100 nM |  |  |
| CCc1c(F)ccc2cc(O)cc(-c3ncc4c(N5CCC[C@@](C)(O)C5)nc(OC[C@]56CCCN5[C@H](COC(=O)N5CCC(CCOc7ccc8c(c7)n(C)c(=O)n8C7CCC(=O)NC7=O)CC5)CC6)nc4c3F)c12 (stereo partly drawn) [Compound 300, ((3S,7aR)-7a-(((7-(8-ethyl-7-fluoro-3-hydroxynaphthalen-1-yl)-8-fluoro-4-((R)-3-hydroxy-3-methylpiperidin-1-yl)pyrido[4,3-d]pyrimidin-2-yl)oxy)methyl)hexahydro-1H-pyrrolizin-3-yl)methyl 4-(2-((1-(2,6-dioxopiperidin-3-yl)-3-methyl-2-oxo-2,3-dihydro-1H-benzo[d]imidazol-5-yl)oxy)ethyl)piperidine-1-carboxylate] | < 10 nM | < 1 nM | < 100 nM |  |  |
| CCc1c(F)ccc2cc(O)cc(-c3ncc4c(N5CCC[C@@](C)(O)C5)nc(OC[C@]56CCCN5[C@H](COC(=O)N5CCC(COc7ccc8c(c7)n(C)c(=O)n8C7CCC(=O)NC7=O)CC5)CC6)nc4c3F)c12 (stereo partly drawn) [Compound 301, ((3S,7aR)-7a-(((7-(8-ethyl-7-fluoro-3-hydroxynaphthalen-1-yl)-8-fluoro-4-((R)-3-hydroxy-3-methylpiperidin-1-yl)pyrido[4,3-d]pyrimidin-2-yl)oxy)methyl)hexahydro-1H-pyrrolizin-3-yl)methyl 4-(((1-(2,6-dioxopiperidin-3-yl)-3-methyl-2-oxo-2,3-dihydro-1H-benzo[d]imidazol-5-yl)oxy)methyl)piperidine-1-carboxylate] | < 10 nM | < 1 nM | < 100 nM |  |  |
